Tests used:
Type in all cases: cell-based
[1] = test system: Leishmania mexicana promastigotes; assay: DNA content analysis with propidium iodide (cell cycle, SubG1); conditions: 1.4 μM Erg-GTr or 2.3 μM Erg-GTr2, 48 hours
Description: In order to analyze if Erg-GTr molecules influence the normal cell cycle distribution, the DNA content of treated cells was evaluated using propidium iodide.
Figure 4 FIGURE 4: Analysis of the DNA content in L. mexicana promastigotes. Treated (1.4 μM Erg-GTr or 2.3 μM Erg-GTr2) or control cells (DMSO) were harvested at different time points and prepared for determination of DNA content. Acquisition was performed in arithmetic scale to obtain G1 and G2/M peaks and in logarithmic scale to earn the subG1 peak. (A) Percentage of cells in the different phases of the cell cycle after 24 and 48 hours treatment. (B) SubG1 peak in percentage after 16, 24 and 48 hours drug contact. Quantification was carried out using the WinMDI software. The bars represent the mean+/-S.D. of three individual cultures measured at each time point.
Propidium iodide was used to determinate the DNA content in parasites after treatment. 1 x 10^6 parasites were washed with PBS and resuspended in 100 μL lysis buffer (7.7 mM Na2HPO4, 2.3 mM KH2PO4) containing 6 μM digitonin. Samples were incubated at 4°C for 30 minutes. Finally, 400 μL staining buffer (20 μg/mL propidium iodide in PBS) was added to each sample. Samples were kept on ice in the dark until their analysis in the cytometer (Beckman Coulter).

[2] = test system: Leishmania mexicana promastigotes; assay: Transmission electron microscopy of treated parasites; conditions: 48 hours, TEM
Description: To analyze if changes observed after parasite treatment with Erg-GTr or Erg-GTr2 can be associated with morphological alterations, cells were prepared for transmission electron microscopy as described in materials and methods section.
Figure 5 FIGURE 5: Transmission electron microscopy (TEM) of Epon-embedded cells. Parasites were treated with 1.4 μM Erg-GTr, 2.3 μM Erg-GTr2 or DMSO (control cells), harvested after 48 hours and prepared for TEM. (A) The most obvious alterations in Erg-GTr-treated cells are as follows: increase of vacuolar structures containing cytoplasmic material (c, d, f, h), myelin-like structures (d, h), increase of lysosomes (d, e, g), and flagellar pocket containing some material (g). Note the usual appearance of mitochondria, nucleus and cytoplasmic content in control cells (a, b). Abbreviations used: lysosome (L); nucleus (N); flagellar pocket (FP); mitochondrion (M). Arrows and asterisk indicate autophagosomes and myelin-like structures, respectively. (B) Mitochondrion zoom in to show cristae. […] Bars represent 0.5 μ each.
For TEM, 10^8 parasites were fixed in 2% (vol/vol) glutaraldehyde in 0.2 M sodium cacodylate buffer containing 0.12 M sucrose for 1 h at 4°C. Thereafter samples were washed four times (10 min each) and stored overnight in sodium cacodylate buffer. Before dehydration in ethanol, cells were postfixed in osmium tetroxide (1.5%, wt/vol) and stained in 0.5% uranyl acetate. Samples were cleared in propylene oxide and embedded in Agar 100 as described by. Sections were stained in 5% (wt/vol) uranyl acetate and 0.4% (wt/vol) lead citrate.

[3] = test system: Leishmania mexicana promastigotes; assay: Mitochondrial membrane potential immediately after addition, rhodamine 123; conditions: Erg-GTr 1.4 μM or Erg-GTr2 2.3 μM
Description: As the Leishmania mitochondrion seems to be involved in [Ca^2+]cyt regulation and can also accumulate Ca^2+ [9], the effect of Erg-GTr and Erg-GTr2 was analyzed immediately after its addition to parasites preloaded with rhodamine 123.
Mitotracker CMX Red(Invitrogen) was used to determine the mitochondrial membrane potential (Ψmit) of treated parasites. After 6, 16, 24, and 48 hours treatment, cells were incubated in culture medium with 50 nM Mitotracker CMX Red for 30 minutes at 26°C in the dark. Thereafter, parasites were washed twice with PBS, resuspended in 1 mL buffer, and analyzed using a cytometer (Beckman Coulter). Parasites incubated with valinomycin (500 nM for 30 minutes) were used as positive control. To evaluate the effect of ergosterone coupled molecules on the mitochondrial membrane potential immediately after molecule addition we used the fluorophore rhodamine-123, a mitochondrion-specific cationic dye, which distributes across the inner mitochondrial membranes strictly according to their membrane potential, as described before. Briefly, 1 x 10^7 parasites were washed twice with rhodamine 123 loading buffer (20 mM Tris-HCl, 130 mM KCl, 1 mM MgCl2, and 2 mM KH2PO4) and incubated with 20 μM rhodamine 123 for 45 minutes at 29°C under agitation. […] Fluorescence (ex 488 nm and em 530 nm) was registered in a Hitachi F-7000 Spectrofluorimeter. […]

For CC(C)C(C)C=CC(C)C1CCC2C3=CC(=NNC(=O)n4cnnc4)C4(O)CC(=O)CCC4(C)C3CCC21C (centres unmarked) [Erg-GTr, [1,2,4]triazole-4-carboxylic acid [5-hydroxy-10,13-dimethyl-3-oxo-17-(1,4,5-trimethyl-hex-2-enyl)-1,2,3,4,5,9,10,11,12,13,14,15,16,17-tetradecahydro-cyclopenta[a]phenanthren-6-ylidene]-hydrazide], the “cell cycle arrest in the G2/M phase” value [1] was “moderate”, the “autophagy (ultrastructural changes)” value [2] was “Induction of autophagy” and the “treated parasites showing increase in cristae number and size” value [2] was “More than 50%”. The “number and size of mitochondrion cristae” value ([2]; compared with control) was “higher” and the “rhodamine 123 fluorescence (depolarization of mitochondrial membrane potential)” value [3] was “slow fluorescence increase”.
